Source: ChEMBL document CHEMBL4118189, “Discovery of novel N-hydroxy-2-arylisoindoline-4-carboxamides as potent and selective inhibitors of HDAC11” (Bioorg Med Chem Lett, 2018)
pIC50: −log10 of the molar value. Converted amounts (≈) assume the structure as drawn.

How the values were obtained:
[1] = Intrinsic clearance in mouse liver microsomes; format: ADME, microsome; settings: read-out: CLH
[2] = target: T1, Protein deacetylase HDAC6 (Homo sapiens, UniProt Q9UBN7); assay: Inhibition of full length recombinant human HDAC6 using fluorescent-labeled peptide as substrate by electrophoretic mobility shift assay
T1 sequence (Q9UBN7 whole entry): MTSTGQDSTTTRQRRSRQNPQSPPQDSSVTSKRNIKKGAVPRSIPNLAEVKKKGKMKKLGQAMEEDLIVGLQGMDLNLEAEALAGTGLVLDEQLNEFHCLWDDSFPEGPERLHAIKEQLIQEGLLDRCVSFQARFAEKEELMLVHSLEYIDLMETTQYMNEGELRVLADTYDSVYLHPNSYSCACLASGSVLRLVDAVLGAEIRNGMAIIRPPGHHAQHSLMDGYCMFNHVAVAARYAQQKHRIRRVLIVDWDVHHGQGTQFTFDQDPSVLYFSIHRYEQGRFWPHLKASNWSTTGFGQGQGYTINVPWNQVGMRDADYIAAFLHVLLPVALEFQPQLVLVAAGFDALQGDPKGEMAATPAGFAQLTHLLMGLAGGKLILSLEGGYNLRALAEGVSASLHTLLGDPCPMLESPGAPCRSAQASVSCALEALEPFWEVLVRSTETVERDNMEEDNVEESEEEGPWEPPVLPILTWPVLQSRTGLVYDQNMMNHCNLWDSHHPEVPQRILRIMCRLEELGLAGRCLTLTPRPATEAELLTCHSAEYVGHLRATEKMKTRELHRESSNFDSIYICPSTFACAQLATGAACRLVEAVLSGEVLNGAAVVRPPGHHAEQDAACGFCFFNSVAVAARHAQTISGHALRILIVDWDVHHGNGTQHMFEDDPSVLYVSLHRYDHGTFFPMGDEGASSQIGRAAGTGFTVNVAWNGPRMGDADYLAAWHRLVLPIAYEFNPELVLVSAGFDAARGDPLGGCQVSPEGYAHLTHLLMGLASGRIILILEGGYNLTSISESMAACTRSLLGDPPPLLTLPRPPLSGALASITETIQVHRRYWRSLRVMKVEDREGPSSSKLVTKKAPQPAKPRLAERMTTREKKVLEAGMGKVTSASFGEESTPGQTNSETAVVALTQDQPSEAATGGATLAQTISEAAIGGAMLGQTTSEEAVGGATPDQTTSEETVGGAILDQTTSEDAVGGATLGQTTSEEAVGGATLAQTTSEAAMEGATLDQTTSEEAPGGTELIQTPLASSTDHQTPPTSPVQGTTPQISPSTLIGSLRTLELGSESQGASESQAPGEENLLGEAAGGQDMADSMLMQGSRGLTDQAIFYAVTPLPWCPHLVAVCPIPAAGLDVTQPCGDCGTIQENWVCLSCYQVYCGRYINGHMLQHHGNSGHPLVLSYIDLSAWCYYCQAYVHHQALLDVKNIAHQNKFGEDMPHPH

Histone deacetylase 11 [3] = target: T2, Histone deacetylase 11 (Homo sapiens, UniProt Q96DB2); assay: Inhibition of full length recombinant human HDAC11 expressed in baculoviral expression system using FAM-RHKK as substrate by electrophoretic mobility shift assay
T2 sequence (Q96DB2 whole entry): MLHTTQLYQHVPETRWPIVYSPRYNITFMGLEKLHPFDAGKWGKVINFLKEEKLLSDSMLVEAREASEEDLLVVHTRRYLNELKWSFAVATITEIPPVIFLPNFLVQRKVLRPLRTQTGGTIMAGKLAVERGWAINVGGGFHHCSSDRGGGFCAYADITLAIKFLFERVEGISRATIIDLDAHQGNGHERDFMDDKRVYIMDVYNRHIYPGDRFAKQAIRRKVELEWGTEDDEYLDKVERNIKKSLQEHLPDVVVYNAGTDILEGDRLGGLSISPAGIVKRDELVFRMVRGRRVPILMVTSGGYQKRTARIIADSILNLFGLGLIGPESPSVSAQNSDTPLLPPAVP

Histone deacetylase 11 [4] = target: T2, Histone deacetylase 11; assay: Inhibition of NanoLuc-tagged HDAC11 (unknown origin) by BRET assay
[5] = Kinetic solubility of the compound at pH 7.4; format: physicochemical; settings: buffer, read-out: Kinetic_solubility
[6] = Permeability of the compound by PAMPA; format: ADME; settings: read-out: permeability
Histone deacetylase 1 = Histone deacetylase 1 (Homo sapiens, UniProt Q13547); assay: Inhibition of full length recombinant human HDAC1 using fluorescent-labeled peptide as substrate by electrophoretic mobility shift assay
Histone deacetylase 1, sequence (Q13547 whole entry): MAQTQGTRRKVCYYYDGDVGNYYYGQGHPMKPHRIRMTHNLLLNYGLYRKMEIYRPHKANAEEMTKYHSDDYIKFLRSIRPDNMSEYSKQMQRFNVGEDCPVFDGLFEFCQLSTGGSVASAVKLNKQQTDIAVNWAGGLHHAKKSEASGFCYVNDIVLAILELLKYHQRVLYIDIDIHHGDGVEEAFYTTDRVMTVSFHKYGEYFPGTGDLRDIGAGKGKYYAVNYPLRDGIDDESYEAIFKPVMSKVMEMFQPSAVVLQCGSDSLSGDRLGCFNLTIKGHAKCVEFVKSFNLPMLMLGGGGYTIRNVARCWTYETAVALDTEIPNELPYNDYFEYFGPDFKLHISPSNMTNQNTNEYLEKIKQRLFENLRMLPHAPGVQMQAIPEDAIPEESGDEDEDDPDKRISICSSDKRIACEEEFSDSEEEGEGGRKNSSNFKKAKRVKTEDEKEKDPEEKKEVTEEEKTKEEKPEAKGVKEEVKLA

Histone deacetylase 2 = Histone deacetylase 2 (Homo sapiens, UniProt Q92769); assay: Inhibition of full length recombinant human HDAC2 using fluorescent-labeled peptide as substrate by electrophoretic mobility shift assay
Histone deacetylase 2, sequence (Q92769 whole entry): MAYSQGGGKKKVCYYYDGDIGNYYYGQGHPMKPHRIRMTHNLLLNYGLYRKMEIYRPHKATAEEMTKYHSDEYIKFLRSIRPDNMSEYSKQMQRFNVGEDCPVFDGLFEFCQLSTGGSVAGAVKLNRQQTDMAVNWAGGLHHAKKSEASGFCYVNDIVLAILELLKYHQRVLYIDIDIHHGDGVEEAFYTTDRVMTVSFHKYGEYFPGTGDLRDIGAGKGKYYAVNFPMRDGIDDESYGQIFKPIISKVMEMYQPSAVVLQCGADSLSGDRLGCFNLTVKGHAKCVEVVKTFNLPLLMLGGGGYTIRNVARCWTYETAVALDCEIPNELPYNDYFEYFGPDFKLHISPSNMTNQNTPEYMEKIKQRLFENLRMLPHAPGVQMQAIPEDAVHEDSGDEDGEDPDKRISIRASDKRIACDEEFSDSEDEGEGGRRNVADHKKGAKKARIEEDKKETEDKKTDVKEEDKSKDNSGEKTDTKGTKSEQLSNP

Histone deacetylase 7 = target: T3, Histone deacetylase 7 (Homo sapiens, UniProt Q8WUI4); assay: Inhibition of full length recombinant human HDAC7 using fluorescent-labeled peptide as substrate by electrophoretic mobility shift assay
T3 sequence (Q8WUI4 whole entry): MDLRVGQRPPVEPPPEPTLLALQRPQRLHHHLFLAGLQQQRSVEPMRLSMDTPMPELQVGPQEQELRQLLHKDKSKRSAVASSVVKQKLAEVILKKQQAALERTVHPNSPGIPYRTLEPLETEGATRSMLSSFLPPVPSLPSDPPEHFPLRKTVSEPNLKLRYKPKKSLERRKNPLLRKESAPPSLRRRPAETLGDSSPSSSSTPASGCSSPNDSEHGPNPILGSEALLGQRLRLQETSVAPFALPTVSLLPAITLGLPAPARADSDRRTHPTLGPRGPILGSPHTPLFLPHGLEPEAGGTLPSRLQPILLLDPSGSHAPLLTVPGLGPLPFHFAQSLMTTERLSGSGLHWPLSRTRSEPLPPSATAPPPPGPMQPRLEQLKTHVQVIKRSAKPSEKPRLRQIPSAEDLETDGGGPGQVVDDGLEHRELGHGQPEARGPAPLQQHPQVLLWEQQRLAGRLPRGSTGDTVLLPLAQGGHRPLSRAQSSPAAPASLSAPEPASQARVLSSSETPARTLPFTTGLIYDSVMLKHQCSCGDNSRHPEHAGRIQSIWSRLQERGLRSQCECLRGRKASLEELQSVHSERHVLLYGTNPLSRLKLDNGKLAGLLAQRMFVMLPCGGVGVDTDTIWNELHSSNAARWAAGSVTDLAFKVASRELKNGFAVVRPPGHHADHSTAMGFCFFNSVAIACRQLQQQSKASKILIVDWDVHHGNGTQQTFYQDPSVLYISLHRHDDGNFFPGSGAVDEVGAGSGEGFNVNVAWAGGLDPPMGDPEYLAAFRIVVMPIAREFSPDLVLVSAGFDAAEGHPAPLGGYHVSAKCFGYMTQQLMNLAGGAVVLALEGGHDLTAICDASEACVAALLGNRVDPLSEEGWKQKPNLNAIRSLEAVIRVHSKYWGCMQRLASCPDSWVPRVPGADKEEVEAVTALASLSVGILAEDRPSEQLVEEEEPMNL

Histone deacetylase 5 = Histone deacetylase 5 (Homo sapiens, UniProt Q9UQL6); assay: Inhibition of full length recombinant human HDAC5 using fluorescent-labeled peptide as substrate by electrophoretic mobility shift assay
Histone deacetylase 5, sequence (Q9UQL6 whole entry): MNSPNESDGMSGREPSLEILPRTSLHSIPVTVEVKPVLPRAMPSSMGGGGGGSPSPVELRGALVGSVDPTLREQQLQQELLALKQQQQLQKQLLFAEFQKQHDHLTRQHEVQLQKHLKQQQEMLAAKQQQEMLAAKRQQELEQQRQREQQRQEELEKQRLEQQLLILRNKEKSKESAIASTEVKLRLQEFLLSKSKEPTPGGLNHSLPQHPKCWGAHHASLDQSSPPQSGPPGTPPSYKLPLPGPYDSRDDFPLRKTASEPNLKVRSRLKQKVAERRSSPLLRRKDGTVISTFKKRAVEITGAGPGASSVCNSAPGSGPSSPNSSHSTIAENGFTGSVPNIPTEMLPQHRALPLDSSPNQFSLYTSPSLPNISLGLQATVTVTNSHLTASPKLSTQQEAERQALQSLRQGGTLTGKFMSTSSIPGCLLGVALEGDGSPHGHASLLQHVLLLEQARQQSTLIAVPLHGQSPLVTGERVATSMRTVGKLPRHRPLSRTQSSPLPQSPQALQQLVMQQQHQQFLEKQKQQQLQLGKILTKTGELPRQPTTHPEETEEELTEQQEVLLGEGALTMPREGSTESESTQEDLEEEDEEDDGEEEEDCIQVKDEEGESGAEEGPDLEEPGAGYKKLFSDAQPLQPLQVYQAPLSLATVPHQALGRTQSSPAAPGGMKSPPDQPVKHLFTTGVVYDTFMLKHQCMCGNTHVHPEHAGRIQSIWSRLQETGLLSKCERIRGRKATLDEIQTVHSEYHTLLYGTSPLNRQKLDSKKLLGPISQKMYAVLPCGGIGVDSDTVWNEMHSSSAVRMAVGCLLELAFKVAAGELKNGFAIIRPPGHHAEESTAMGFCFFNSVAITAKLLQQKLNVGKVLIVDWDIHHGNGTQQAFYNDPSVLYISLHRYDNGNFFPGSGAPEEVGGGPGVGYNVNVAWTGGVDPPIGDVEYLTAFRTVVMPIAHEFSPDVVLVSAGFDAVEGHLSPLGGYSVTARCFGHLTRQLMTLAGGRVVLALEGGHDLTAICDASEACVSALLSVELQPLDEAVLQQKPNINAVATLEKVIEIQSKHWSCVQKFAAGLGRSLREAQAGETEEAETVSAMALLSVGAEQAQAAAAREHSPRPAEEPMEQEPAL

Histone deacetylase 3 = Histone deacetylase 3 (Homo sapiens, UniProt O15379); assay: Inhibition of full length recombinant human HDAC3 using fluorescent-labeled peptide as substrate by electrophoretic mobility shift assay
Histone deacetylase 3, sequence (O15379 whole entry): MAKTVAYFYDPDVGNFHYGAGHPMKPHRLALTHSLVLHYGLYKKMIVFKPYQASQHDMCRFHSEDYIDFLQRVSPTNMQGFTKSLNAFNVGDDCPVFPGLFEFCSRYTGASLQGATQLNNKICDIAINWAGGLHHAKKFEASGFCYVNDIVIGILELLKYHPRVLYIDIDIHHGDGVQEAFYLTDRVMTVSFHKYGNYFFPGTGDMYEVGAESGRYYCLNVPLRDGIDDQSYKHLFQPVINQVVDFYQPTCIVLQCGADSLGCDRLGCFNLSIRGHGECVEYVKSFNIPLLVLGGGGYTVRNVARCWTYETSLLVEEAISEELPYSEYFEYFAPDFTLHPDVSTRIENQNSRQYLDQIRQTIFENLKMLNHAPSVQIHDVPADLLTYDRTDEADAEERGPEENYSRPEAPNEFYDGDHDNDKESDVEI

Histone deacetylase 9 = Histone deacetylase 9 (Homo sapiens, UniProt Q9UKV0); assay: Inhibition of full length recombinant human HDAC9 using fluorescent-labeled peptide as substrate by electrophoretic mobility shift assay
Histone deacetylase 9, sequence (Q9UKV0 whole entry): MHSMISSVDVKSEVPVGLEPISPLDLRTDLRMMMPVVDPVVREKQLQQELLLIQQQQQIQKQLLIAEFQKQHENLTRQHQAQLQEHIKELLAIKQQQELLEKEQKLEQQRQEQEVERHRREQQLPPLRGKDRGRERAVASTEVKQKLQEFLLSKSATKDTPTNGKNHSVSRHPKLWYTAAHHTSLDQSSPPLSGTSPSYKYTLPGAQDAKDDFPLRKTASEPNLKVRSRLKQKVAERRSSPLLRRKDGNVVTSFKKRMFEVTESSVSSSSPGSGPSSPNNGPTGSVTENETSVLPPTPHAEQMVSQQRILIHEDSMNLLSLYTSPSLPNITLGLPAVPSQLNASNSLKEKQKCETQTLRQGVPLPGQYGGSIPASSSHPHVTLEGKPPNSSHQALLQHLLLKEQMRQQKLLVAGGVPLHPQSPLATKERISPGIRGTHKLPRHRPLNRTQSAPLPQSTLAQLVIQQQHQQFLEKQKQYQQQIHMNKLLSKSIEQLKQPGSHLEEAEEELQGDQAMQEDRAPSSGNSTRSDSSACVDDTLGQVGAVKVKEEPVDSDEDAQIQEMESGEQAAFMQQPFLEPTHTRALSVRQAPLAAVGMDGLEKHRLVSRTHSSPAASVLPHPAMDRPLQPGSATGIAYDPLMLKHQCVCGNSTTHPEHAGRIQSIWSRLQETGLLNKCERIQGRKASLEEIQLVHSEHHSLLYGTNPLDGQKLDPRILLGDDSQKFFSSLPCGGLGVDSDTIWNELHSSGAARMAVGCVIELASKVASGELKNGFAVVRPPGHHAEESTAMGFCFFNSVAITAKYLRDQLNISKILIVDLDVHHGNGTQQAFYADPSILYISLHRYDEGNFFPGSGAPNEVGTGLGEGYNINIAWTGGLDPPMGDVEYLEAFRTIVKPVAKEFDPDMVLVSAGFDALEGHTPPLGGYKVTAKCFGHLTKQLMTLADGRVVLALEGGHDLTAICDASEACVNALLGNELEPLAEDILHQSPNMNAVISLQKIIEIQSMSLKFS

[7] = target: T4, Polyamine deacetylase HDAC10 (Homo sapiens, UniProt Q969S8); assay: Inhibition of full length recombinant human HDAC10 using fluorescent-labeled peptide as substrate by electrophoretic mobility shift assay
T4 sequence (Q969S8 whole entry): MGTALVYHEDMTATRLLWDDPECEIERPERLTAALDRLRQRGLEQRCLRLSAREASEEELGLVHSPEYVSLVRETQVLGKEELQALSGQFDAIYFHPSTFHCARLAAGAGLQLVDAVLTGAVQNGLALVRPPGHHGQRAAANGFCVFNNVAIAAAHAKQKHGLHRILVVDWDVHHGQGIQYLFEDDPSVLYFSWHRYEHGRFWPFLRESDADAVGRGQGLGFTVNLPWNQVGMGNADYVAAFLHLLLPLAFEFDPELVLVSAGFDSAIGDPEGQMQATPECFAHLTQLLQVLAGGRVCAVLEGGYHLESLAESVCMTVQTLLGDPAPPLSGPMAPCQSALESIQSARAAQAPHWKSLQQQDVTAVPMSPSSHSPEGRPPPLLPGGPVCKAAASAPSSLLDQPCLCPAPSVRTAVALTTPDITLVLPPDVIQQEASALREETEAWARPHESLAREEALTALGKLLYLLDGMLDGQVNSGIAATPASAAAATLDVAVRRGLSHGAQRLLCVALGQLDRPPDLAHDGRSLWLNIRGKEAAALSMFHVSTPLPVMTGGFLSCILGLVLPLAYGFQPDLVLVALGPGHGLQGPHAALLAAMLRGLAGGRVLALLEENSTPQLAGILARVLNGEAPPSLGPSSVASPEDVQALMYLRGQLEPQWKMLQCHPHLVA

Row | SMILES | microsomal CLint [1] [µL/min/mg] | pIC50 (Histone deacetylase 11 [3]) | solubility kinetic [5] [µM] | Papp [6] [×10⁻⁶ cm/s] | further results
1 | O=C(NO)c1cccc2c1CCN(c1nc3ccccc3[nH]1)C2 | < 7 | 5.92 | – | – | pIC50 [2]: < 5.00
2 | O=C(NO)c1cccc2c1CCN(c1nc3ccccc3[nH]1)CC2 | 161 | 7.52 | – | – | pIC50 [2]: 5.55
3 | CC1(C)c2cccc(C(=O)NO)c2CN1c1ncc(C(F)(F)F)cn1 | 21 | 8.30 | 32 (≈ 11.3 µg/mL) | 18 | pIC50 (Histone deacetylase 11 [4]): 7.07
4 | O=C(NO)c1cccc2c1CN(c1ccc(C(F)(F)F)cn1)C2 | 81 | 8.15 | – | – | –
5 | O=C(NO)c1cccc2c1CN(C1=NC3CCCCC3N1)C2 (configuration not stated) | 317 | 6.52 | – | – | –
6 | O=C(NO)c1cccc2c1CN(c1nc3ccccc3o1)C2 | 313 | 8.15 | – | – | –
7 | CC1(C)c2cccc(C(=O)NO)c2CN1c1ccc(C(F)(F)F)cn1 | 28 | 8.22 | 8 (≈ 2.81 µg/mL) | 12 | pIC50 (Histone deacetylase 11 [4]): 6.89
8 | O=C(NO)c1cccc2c1CN(c1ccc3ccccc3n1)C2 | 92 | 7.59 | – | – | –
9 | CC1(C)c2cccc(C(=O)NO)c2CN1c1cnc(C(F)(F)F)cn1 | 22 | – | 31 (≈ 10.9 µg/mL) | 13 | pIC50 (Histone deacetylase 1): < 5.00; pIC50 (Histone deacetylase 2): < 5.00; pIC50 (Histone deacetylase 7): < 5.00; pIC50 (Histone deacetylase 5): < 5.00; pIC50 (Histone deacetylase 3): < 5.00; pIC50 (Histone deacetylase 9): < 5.00; pIC50 [7]: < 5.00; pIC50 [2]: < 5.00
10 | CC1(C)c2cccc(C(=O)NO)c2CN1c1ccc(C(F)(F)F)nc1 | 12 | 8.52 | 51 (≈ 17.9 µg/mL) | 8 | pIC50 (Histone deacetylase 11 [4]): 7.92
11 | O=C(NO)c1cccc2c1CN(c1nc3ccc(C(F)(F)F)cc3[nH]1)C2 | 140 | 8.70 | – | – | –
12 | CC1(C)c2cccc(C(=O)NO)c2CN1c1cnc(C(F)(F)F)nc1 | 7 | 7.57 | 82 (≈ 28.9 µg/mL) | – | pIC50 (Histone deacetylase 11 [4]): 6.57
13 | Cc1nc(N2Cc3cccc(C(=O)NO)c3C2)[nH]c1C | 88 | 5.64 | – | – | –
14 | O=C(NO)c1ccc2c(c1)CCN(c1nc3ccccc3[nH]1)C2 | – | < 5.00 | – | – | pIC50 [2]: 8.70
15 | CC1(C)c2cccc(C(=O)NO)c2CN1c1nc2cc(C(F)(F)F)ccc2o1 | 10 | 9.00 | 4 (≈ 1.57 µg/mL) | 7 | –
16 | CC1(C)c2cccc(C(=O)NO)c2CN1c1nc2ccc(C(F)(F)F)cc2[nH]1 | 12 | 8.70 | 51 (≈ 19.9 µg/mL) | 0.1 | –
17 | CC1(C)c2cccc(C(=O)NO)c2CN1c1nc2ncccc2o1 | 7 | 8.70 | 78 (≈ 25.3 µg/mL) | 0.7 | pIC50 (Histone deacetylase 11 [4]): 7.70
18 | O=C(NO)c1cccc2c1CN(c1nc3ccccc3s1)C2 | 323 | 7.46 | – | – | –
19 | O=C(NO)c1cccc2c1CN(c1nc3ccccc3[nH]1)CC2 | – | 5.34 | – | – | pIC50 [2]: 7.09
